Measurements: paper PMC10318527, “Utilization of dietary mixed-linkage β-glucans by the Firmicute Blautia producta” (The Journal of Biological Chemistry, 2023)

What was measured:
BPGH16 mutant D381A = test: Kinetics of BPGH16 mutant D381A (DNS assay); format: biochemical, Blautia producta ATCC 27340
Protocol: The residues R331, L358, E379, D381, E384, W362, and H398 of BpGH16MLG were mutated to Ala by the Q5Site-Directed Mutagenesis Kit (New England Biolabs, UK, catalogue no. E0554S). Wild-type plasmid BpGH16-pET28a(+) was used as a template, and mutagenic forward and reverse primers were developed using NEBaseChanger with subtle modifications (Table S4). A 25 μl PCR cocktail was prepared for mutating each residue. The final concentration of Q5 Hot Start High-Fidelity 2X Master Mix was 1X, each primer was at 0.5 μM, the amount of used template was 20 ng, and the rest of the volume was made up of nuclease-free water. PCR was executed using the following conditions-initial denaturation was performed at 98 °C for 1 min, for each cycle-denaturation, annealing, and extension (72 °C) were set for 10 s, 20 s, and 7 min, respectively. A total of 25 cycles were performed, and the final extension was for 5 min 5 μl PCR products were loaded on 0.8% agarose gel to conform to the amplification of the mutagenic gene. Ligation of PCR products and cleavage of methylated template DNA was then performed using 5 μl KLD reaction buffer and 1 μl KLD enzyme cocktail at RT for 1 h. It was then transformed into E. coli TOP-10 cells and plasmids were isolated. The obtained plasmids were sequenced to confirm the mutation at the desired location. Once mutation was confirmed in a gene, the mutant plasmid was transformed into Rosetta (DE3) cells for protein expression. The mutant protein was then expressed as per the protocol mentioned earlier, and kinetics were performed with barley β-glucan.
Reactions were performed in 100 μl volume mixture using recombinant enzyme (final concentration at 0.1 mg/ml) in 50 mM sodium phosphate buffer (pH 5.7) at 37 °C for 1 h of incubation. Then, reactions were terminated by boiling for 5 min. Enzymatic assays were determined with 3,5- dinitrosalicylic acid (DNS) assay ([85]). In brief, 0.05 g Na2SO3 and 1 g DNS were mixed in a 50 ml water-containing reagent bottle and stirred about 6 h using a magnetic stirrer. After that, 200 μl phenol was added and made up to 100 ml. A working solution of DNS was prepared by adding 50 μl glucose (20% (w/v) stock) in prepared 100 ml of reagent mixtures and immediately used for experiments without adding NaOH. 80 μl DNS reagent was added to the reaction mixtures and incubated at 100 °C for 10 min, followed by ice-cooling for 10 min. Consequently, recorded the developed color spectrophotometrically at 575 nm ([85]). A standard curve generated by different concentrations of maltose was used for determining released reducing sugars in each case.

proteome of B. producta = test: Proteomics of B. producta grown on barley β-glucan versus glucose; format: cell-based, Blautia producta ATCC 27340; conditions: barley β-glucan compared to glucose
Protocol: B. producta ATCC 27340 was anaerobically grown at 37 °C overnight, cells were collected by centrifugation (3000g at room temperature, RT) and washed thrice with 5 ml PBS. […] The strain was grown to the mid-late exponential phase ([…] ∼ 0.5-0.6) in two biological replicates. […] The lysate was centrifuged (15,000g, 15 min at 4 °C), and the supernatant was collected. Procedures for the precipitation of protein, trypsin digestion, and analysis of generated peptides have been mentioned in the Supplementary file. […] Protein quantities were then calculated using Bradford assay. […] Consequently, trypsin digestion of protein was attained by incubating the reaction at 37°C for 16 h using 5 μg trypsin (MS grade, Promega). The next day, the reaction was quenched by adding one volume of 2% (w/v) trifluoroacetic acid, and the obtained peptides were used for mass spectrometry. Analysis of peptides was carried out as reported by Singh et al. (83). Using the manufacturer's protocol, peptides from each replicate of B. producta ATCC 27340 were initially cleaned-up using Oasis HLB 1 cc Vac cartridges (Waters). The […] analysis of each sample was performed on a quadrupole-TOF hybrid mass spectrometer (TripleTOF 6600, SCIEX) coupled to an Eksigent Nano LC-425 system. […] method was created using 93 precursor isolation windows which were defined on the basis of precursor m/z frequencies in DDA run using the SWATH Variable Window Calculator (SCIEX), with a limitation window of 5 m/z. Analysis parameters were optimized before any sample was run. Nebulizer gas and curtain gas were maintained at 20 and 25 psi, respectively.

BPGH16 mutant E384A = test: Kinetics of BPGH16 mutant E384A (DNS assay); format: biochemical, Blautia producta ATCC 27340
Protocol: (§1) The residues R331, L358, E379, D381, E384, W362, and H398 of BpGH16MLG were mutated to Ala by the Q5Site-Directed Mutagenesis Kit (New England Biolabs, UK, catalogue no. E0554S). Wild-type plasmid BpGH16-pET28a(+) was used as a template, and mutagenic forward and reverse primers were developed using NEBaseChanger with subtle modifications (Table S4). A 25 μl PCR cocktail was prepared for mutating each residue. The final concentration of Q5 Hot Start High-Fidelity 2X Master Mix was 1X, each primer was at 0.5 μM, the amount of used template was 20 ng, and the rest of the volume was made up of nuclease-free water. PCR was executed using the following conditions-initial denaturation was performed at 98 °C for 1 min, for each cycle-denaturation, annealing, and extension (72 °C) were set for 10 s, 20 s, and 7 min, respectively. […] The mutant protein was then expressed as per the protocol mentioned earlier, and kinetics were performed with barley β-glucan.
(§2) Reactions were performed in 100 μl volume mixture using recombinant enzyme (final concentration at 0.1 mg/ml) in 50 mM sodium phosphate buffer (pH 5.7) at 37 °C for 1 h of incubation. […] Enzymatic assays were determined with 3,5- dinitrosalicylic acid (DNS) assay ([85]). […] Consequently, recorded the developed color spectrophotometrically at 575 nm ([85]). […]

BPGH16 mutant E379A = test: Kinetics of BPGH16 mutant E379A (DNS assay); format: biochemical, Blautia producta ATCC 27340
Protocol: as §1, §2

R. faecis = test: Growth of R. faecis on barley β-glucan; format: cell-based, Roseburia faecis; conditions: minimal medium with 1% barley β-glucan, no BpGH16MLG
Protocol: […] JCM 31261, B. pseudocatenulatum JCM 1200^T, B. adolescentis JCM 1275^T, B. coccoides JCM 1395^T, B. bifidum JCM 1254, and A. caccae JCM 13470^T were used for bacterial mono-culture experiments. […] About 5 μl glycerol stock was initially inoculated to 5 ml of GAM for the primary culture of these strains. […] The experiment was set up on 300 μl flat-bottomed 96-well microtiter plates. Reading was taken every interval of 8 h at 600 nm on a spectrophotometer.

Substance: Barley β-glucan
- overall loss in activity (BPGH16 mutant D381A; D381A versus native enzyme): 1.34 fold
- reduction in kcat (BPGH16 mutant D381A; D381A versus native enzyme): 1.7 fold
- Km (BPGH16 mutant D381A; mutant D381A, DNS assay): 0.17 ± 0.04 mg/mL
- kcat (BPGH16 mutant D381A; mutant D381A, DNS assay): 35.7 ± 1.1 s⁻¹
- abundance of Bp1313 (proteome of B. producta): approximately 5 fold
- abundance of Bp1314 (proteome of B. producta): ~16 fold
- expression of Bp1317 (proteome of B. producta): about 7 fold
- expression of Bp1318 (proteome of B. producta): about 7 fold
- up-regulation of Bp3738 (GH18) (proteome of B. producta): 5.1 fold
- up-regulation of Bp4420 (GH3) (proteome of B. producta): 3.4 fold
- up-regulation of Bp8539 (GH3) (proteome of B. producta): 12.4 fold
- kcat (BPGH16 mutant E384A): 0 s⁻¹
- kcat (BPGH16 mutant E379A): 0 s⁻¹
- growth of R. faecis (R. faecis): could not grow
